These results are taken from patent US4704277A, “Methods of treating bone disorders” (Sloan-Kettering Institute for Cancer Research, priority 1985, dated 1987).

One data set relates to bone. The conditions noted are these: cited from earlier work.
The conditions of data set [1]: patients treated in clinical testing; cited from earlier work.
Data set [2] deals with long bones (metaphyses and diaphyses). Kind of data set: Bone Ga, Ca, P content and ash weight of bone fragments from gallium-treated rats. Type of data set: in vivo, Sprague-Dawley rats. The conditions noted are these: for bone calcium content vs nontreated: 7 injections of 5 mg over 14 days; for Ga content of bone: gallium treated rats, n=6, 20160 min. As for the experimental part: (§1) Young female (120 g) Sprague-Dawley rats received a course of injections with 0.5 or 5.0 mg gallium nitrate, every other day. The 0.5 mg concentration is approximately equivalent (on a weight/weight basis) to the dose used to treat patients with cancer-related hypercalcemia by Warrell, et. al., supra. The animals received 7 interperitoneal injections over a 9-14 day period. Control groups were injected with carrier only. […] To obtain bone samples the rats were anesthetized and then sacrificed. The long bones were removed and cleaned of all muscle and connective tissue. The metaphyseal (ends containing the growth plate) and diaphyseal (shaft) portions of the bones were separated using a dissecting microscope. The bone pieces were then split and cleaned of all visible marrow, frozen and lyophilized. The split, dried, marrow-free bone fragments were pulverized in a liquid nitrogen cooled colloid mill to produce bone powder. Aliquots of bone particles were used for: (a) ash weight determination, (b) measurement of Ga, Ca and P content and (c) X-ray diffraction analysis. A portion of one bone particle preparation was sieved to uniform size using an #325 stainless steel mesh. Approximately 50 mg of the sieved-particle bone was then dispersed in bromoform:toluene, density=2.0 g/cc (as measured with a pynconometer). The suspension was centrifuged in the cold at 100 x G for 15 minutes. The suspended particles, representing newly formed mineral bone, density <2.0 g/cc were removed, washed with acetone then dried. The pelleted particles, density >2.0 g/cc were similarly washed with acetone and dried. Both the light and heavy density fractions were analyzed for Ga and Ca content.
Gallium content in bone was measured by flameless atomic absorption spectrophotometry. Inorganic phosphorus was measured spectrophotometrically.
In subsequent experiments, rats were given 7 injections with 5 mg gallium nitrate over 14 days. […] As expected, increased calcium content was measured in the heavier density fraction >2.0 g/cc (220±31 vs 132±42 ug Ca/mg bone) which contained the more mineralized and more mature hydroxyapatite crystalline material.

The subject of a further data set is bone hydroxyapatite. Kind of data set: Wide angle X-ray diffraction of powdered bone (hydroxyapatite crystal size/perfection, B002). It is filed as in vivo, Sprague-Dawley rats. The conditions noted are these: for BOO2 (002 line width at half maximum): gallium treated rats, n=11. As for the experimental part: as §1
Aliquots of the powdered bone were subjected to wide angle x-ray diffraction using Cu K(alpha) radiation. Samples were rapidly scanned from 4° 2.phi. to 70° 2.phi. to detect the presence of phases other than hydroxyapatite. Triplicate slow scans from 24° to 28° 2.phi. were used to estimate hydroxyapatite crystal size and perfection based on the line-width measurements (B002) made at the half maximum point of the c-axis 002 reflection at 25.8° 2.phi.. […] As a consequence, crystals formed in the metaphyses of the treated animals were similar to those found in the more mature diaphyses.

Data set [3] in a line: Body weight in gallium nitrate injected rats (lack of toxicity). Type of data set: in vivo, Sprague-Dawley rats. Particulars: 0.5 or 5.0 mg i.p. every other day, end of 14 day schedule. The method, then:
as §1, with “The suspension was centrifuged in the cold at 100 x G for 15 minutes. The suspended particles, representing newly formed mineral bone, density <2.0 g/cc were removed, washed with acetone then dried. The pelleted particles, density >2.0 g/cc were similarly washed with acetone and dried.” left out

The next data set deals with bone turnover. The experiment in a line: Bone turnover in patients with bone metastases on short term gallium nitrate infusion. It is filed as in vivo, human (patients with bone metastases). As for the experimental part: (§2) These additional experiments were performed to permit evaluation of bone turnover in patients with bone metastases, in response to short term infusion of gallium nitrate.
Seventeen infusions were administered to fifteen patients, five of whom were hypercalcemic. Gallium nitrate was administered as a continuous infusion at daily doses ranging from […], over 5-7 days. Bone turnover was assessed by serial measurements of urinary levels of Ca^2+, hydroxyproline (OHP), and creatinine (Cr), as well as the serum levels of osteocalcin (BGP). […] Mean reduction was 70±18%. Eight patients with increased bone turnover (i.e., a urinary OHP/Cr ratio greater than 6.0), received eleven drug infusions. […] Mean reduction was 49±22%.

For a further data set, the system named is bone tissue. The experiment in a line: Histological studies of bone tissue for cytotoxicity. The text has this: (§3) Cytotoxicity studies were undertaken to determine if gallium nitrate was cytotoxic to bone tissue. […] At this dose and time, a 20% decrease in ^3 H-thymidine incorporation into DNA was seen.
A further data set relates to bone cell models. The experiment in a line: Cytotoxicity in bone cell models. It is filed as cell-based.
From the text: as §3

For a further data set, the system named is total serum calcium. Kind of data set: Comparative effect of calcitonin and gallium nitrate on total serum calcium. It is filed as in vivo. Particulars: one patient; calcitonin many times over recommended dose; FIG. 1. The method, then:
Comparative studies were performed as to the effect of Calcitonin on total serum calcium, compared to gallium nitrate in a patient with severe life-threatening hypercalcemia due to bone metastases.

Another data set relates to bone resorption. The experiment in a line: Inhibition of bone resorption by gallium nitrate. Particulars: direct effect. The method, then: as §2
The subject of the next data set is bone calcium. The conditions noted are these: humans; application Ser. No. 622,726; cited from earlier work.
The conditions of data set [4]: continuous infusion; Warrell 1983, Leyland-Jones 1983; cited from earlier work.

For `CC(O)(P(=O)(O)O)P(=O)(O)O` [EHDP], the bone mineralization entry in the data set on bone (Schenk et al. 1973) is “blocks normal bone mineralization and leads to formation of disordered and inadequately calcified bone (osteomalacia)”.
For `O=P(O)(O)C(Cl)(Cl)P(=O)(O)O` [dichloromethylenediphosphonate], in data set [1], the leukemia result was “increased development of leukemia”.
In the case of `F` [fluoride], the bone structure result in the data set with bone (Jowsey et al. 1968) is “highly abnormal (lamellar-type) bone structure which is less strong relative to normal bone”.
For `O=[N+]([O-])[O-].O=[N+]([O-])[O-].O=[N+]([O-])[O-].[Ga+3]` [gallium nitrate], the “mineral content (ash weights), treated vs control” value in data set [2] (7 injections with 5 mg gallium nitrate over 14 days) was “not significantly different”. The “site of greatest gallium uptake” value in data set [2] (bone fragments, different total doses) is “metaphyseal bone”. The “bone calcium content vs nontreated” value is “No differences in calcium content” in data set [2] (diaphyseal fragments) and “statistically significant increase in bone calcium content” in [2] (metaphyses). For the same compound, the “Ga content of bone” value in data set [2] (diaphyses) is on record as 149 ± 30 ng/mg; in data set [2] (metaphyses) it was 384 ± 69 ng/mg. Moreover, the “gallium incorporation into bone” value in data set [2] (gallium:calcium ratio, different total doses) is reported as “incorporated into bone in very low amounts”. The “Ca content of density fraction” value in data set [2] (heavier density fraction >2.0 g/cc) was found to be 220±31 ug Ca/mg bone; in data set [2] (lighter fraction <2.0 g/cc (comparator of the 'vs')), 132±42 ug Ca/mg bone. Further, the “Ga content of density fraction” value in [2] (heavier density fraction >2.0 g/cc (comparator of the 'vs.')) is reported as 2.9±0.4 ug Ga/mg Ca; in data set [2] (lighter bone fraction, <2.0 g/cc (newly synthesized mineral)) it was 3.2±0.2 ug Ga/mg Ca. In addition, the mineral phases detected entry in the data set with bone hydroxyapatite (all samples, scan 4° to 70° 2.phi.) is “The only phase detected in all samples was hydroxyapatite”. For the same compound, the “BOO2 (002 line width at half maximum)” value in the data set on bone hydroxyapatite (diaphyses) and in the data set on bone hydroxyapatite (metaphyses) was 0.50 ± .03 degrees each time. Also, in the data set on bone hydroxyapatite (metaphyseal particles), the “B002 vs control” value is reported as “differed significantly”. Moreover, the “hydroxyapatite crystal size/perfection” value in the data set on bone hydroxyapatite (metaphyses, region of more active bone mineralization) was “larger or more perfect crystals”. For the same compound, the “body weights or weight gained, treated vs nontreated” value in [3] is “no differences”. The “urinary OHP/Cr ratio” value with bone turnover (6 patients with bone turnover not elevated) was “no significant change”; with bone turnover (8 patients with increased bone turnover (OHP/Cr > 6.0)), “All patients showed a decrease in OHP/Cr”. The “mean reduction of urinary OHP/Cr ratio” value with bone turnover (8 patients with increased bone turnover (OHP/Cr > 6.0), 11 infusions) came out at 49±22%. In addition, the “urinary 24 hour Ca2+ excretion” value in the data set on bone turnover (after each infusion in all 15 patients) is “markedly reduced after each infusion in all 15 patients”. In addition, the “accelerated bone loss” value with bone turnover (cancer patients with bone metastases) is listed as “reduces accelerated bone loss”. In addition, the “mean reduction of urinary 24 hour Ca2+ excretion” value in the data set on bone turnover (continuous infusion 100-300 mg daily over 5-7 days, 15 patients) is 70±18%. Further, in the data set with bone tissue (histology), the “cytotoxic effect at light microscopic level” value is on record as “no evidence of cytotoxic effect”. In addition, the “matrix or mineral components” value in the data set on bone tissue (stained sections) was “no alteration in matrix or mineral components”. Also, in the data set with bone cell models (3H-amino acid labeled cell homogenates), the “protein banding patterns on SDS-PAGE, treated vs untreated” value was “no differences”. Besides, the “cell numbers or viability” value in the data set on bone cell models (48 hours, up to 25 uM) is recorded as “Little change in cell numbers or viability”. Also, the “action as consequence of cytotoxic effect on bone cells” value in the data set with bone cell models (conclusion) is “not a consequence of a cytotoxic effect on bone cells”. Further, the “reduction of elevated serum calcium vs calcitonin” value in the data set with total serum calcium is reported as “distinctly greater effect on reducing elevated serum calcium”. The “bone resorption” value in the data set with bone resorption is given as “directly inhibits bone resorption”. The “excessive loss of bone calcium” value in the data set on bone calcium is “effective in reducing excessive loss of bone calcium”. The safety of administration entry in data set [4] was “safe and non-toxic”.
With calcitonin, the “rate of bone resorption” value in the data set with bone (parenteral) was “transient decrease in the rate of bone resorption”. Besides, in the data set with bone (repetitive injections, Gruber et al.), the “bone mineral content (densimetric)” value is “increase bone mineral content”. Moreover, the “duration of anti-resorptive effect” value with bone (tachyphylaxis) is reported as “short-lived”.
